Assay results: ChEMBL document CHEMBL3352609, “Synthesis of new 1-(4-methane(amino)sulfonylphenyl)-5-(4-substituted-aminomethylphenyl)-3-trifluoromethyl-1H-pyrazoles: a search for novel nitric oxide donor anti-inflammatory agents” (2014)

Key:
Type in all cases: functional
[1] = tested on: Rattus norvegicus; test: Anti-inflammatory activity in carrageenan-induced rat foot paw edema model assessed as reduction in paw volume at 20 mg/kg dosed 30 mins before carrageenan injection and measured 1 hr after carrageenan challenge
[2] = tested on: Rattus norvegicus; test: Anti-inflammatory activity in carrageenan-induced rat foot paw edema model assessed as reduction in paw volume at 20 mg/kg dosed 30 mins before carrageenan injection and measured 3 hrs after carrageenan challenge
[3] = tested on: Rattus norvegicus; test: Anti-inflammatory activity in carrageenan-induced rat foot paw edema model assessed as reduction in paw volume at 20 mg/kg dosed 30 mins before carrageenan injection and measured 5 hrs after carrageenan challenge

Q: Which inhibition in vivo at 20 mg/kg [1] does the source give for `CNCc1ccc(-c2cc(C(F)(F)F)nn2-c2ccc(S(C)(=O)=O)cc2)cc1` here?
A: 72%

Q: And the inhibition in vivo at 20 mg/kg [2]?
A: 89%

Q: And the inhibition in vivo at 20 mg/kg [3]?
A: 67%

Q: What does the source list for `CCNCc1ccc(-c2cc(C(F)(F)F)nn2-c2ccc(S(C)(=O)=O)cc2)cc1`?
A: inhibition in vivo at 20 mg/kg [1]: 66%; inhibition in vivo at 20 mg/kg [2]: 72%; inhibition in vivo at 20 mg/kg [3]: 66%

Q: With `CS(=O)(=O)c1ccc(-n2nc(C(F)(F)F)cc2-c2ccc(CN3CCNCC3)cc2)cc1` as the molecule, how does the inhibition in vivo at 20 mg/kg [1] read?
A: 67%

Q: What about the inhibition in vivo at 20 mg/kg [2] of the same molecule?
A: 73%

Q: What about the inhibition in vivo at 20 mg/kg [3] of the same molecule?
A: 66%

Q: What does the source list for `CNCc1ccc(-c2cc(C(F)(F)F)nn2-c2ccc(S(N)(=O)=O)cc2)cc1`?
A: inhibition in vivo at 20 mg/kg [1]: 54%; inhibition in vivo at 20 mg/kg [2]: 69%; inhibition in vivo at 20 mg/kg [3]: 57%

Q: Which inhibition in vivo at 20 mg/kg [1] does the source give for `CCNCc1ccc(-c2cc(C(F)(F)F)nn2-c2ccc(S(N)(=O)=O)cc2)cc1` here?
A: 53%

Q: And the inhibition in vivo at 20 mg/kg [2]?
A: 71%

Q: What about the inhibition in vivo at 20 mg/kg [3] of the same molecule?
A: 39%

Q: For `NS(=O)(=O)c1ccc(-n2nc(C(F)(F)F)cc2-c2ccc(CN3CCNCC3)cc2)cc1`, which inhibition in vivo at 20 mg/kg [1] is on record?
A: 58%

Q: And the inhibition in vivo at 20 mg/kg [2]?
A: 70%

Q: What about the inhibition in vivo at 20 mg/kg [3] of the same molecule?
A: 35%

Q: With `CCN(Cc1ccc(-c2cc(C(F)(F)F)nn2-c2ccc(S(C)(=O)=O)cc2)cc1)N=O` as the molecule, how does the inhibition in vivo at 20 mg/kg [1] read?
A: 24%

Q: What about the inhibition in vivo at 20 mg/kg [2] of the same molecule?
A: 39%

Q: And the inhibition in vivo at 20 mg/kg [3]?
A: 25%

Q: For `CS(=O)(=O)c1ccc(-n2nc(C(F)(F)F)cc2-c2ccc(CN3CCN(N=O)CC3)cc2)cc1`, which inhibition in vivo at 20 mg/kg [1] is on record?
A: 19%

Q: What about the inhibition in vivo at 20 mg/kg [2] of the same molecule?
A: 43%

Q: And the inhibition in vivo at 20 mg/kg [3]?
A: 29%

Q: Which results are given for `Cc1ccc(-c2cc(C(F)(F)F)nn2-c2ccc(S(N)(=O)=O)cc2)cc1` [CELECOXIB]?
A: inhibition in vivo at 20 mg/kg [1]: 40%; inhibition in vivo at 20 mg/kg [2]: 80%; inhibition in vivo at 20 mg/kg [3]: 48%
